Experiments:
Type in all cases: cell-based, human
[1] = tested on: LNCaP cells; assay: Apoptosis of LNCaP cells (Yo-Pro-1/7-AAD flow cytometry); conditions: 48 hr; for induction of apoptosis in LNCaP cells: compound alone
Description: (§1) FIGS. 12A-D show the effect of different compounds on the proliferation and apoptosis of LNCaP cells. […] Time-elapsed images were taken with an Incucyte imaging system every hour for 4 days. The proliferation of LNCaP cells is presented as increase in confluency (read by the instrument) at 80 hrs. Data represent the means+SEM of three independent experiments. […] Apoptosis was measured 2 days after treatment by flow cytometry using 7-AAD and Yo-Pro-1 as described in Materials and Methods. Data represent the means+SEM of three independent experiments.
(§2) LNCaP cells treated for 48 hours with the different drugs or with DMSO as control were washed and re-suspended in phosphate buffered saline. Yo-Pro-1 (Invitrogen, Carlsbad, Calif.) was added to a final concentration of 1 μM and the cells were incubated for 20 min at 4° C. in the dark. 7-Aminoactinomycin D (7-AAD) (Invitrogen, Carlsbad, Calif.) was then added at a 5 μg/mL final concentration 10 minutes before analysis by flow cytometry using the FACSCalibur system (Becton Dickinson, Mountain View, Calif.). Data were analyzed with FlowJo 7 (Tree Star Inc., Ashland, Oreg.). The Yo-Pro-1 positive cells were considered apoptotic and were expressed as % of total cells. Western blot analysis of treated LNCaP cell lysates was performed as described previously using rabbit anti-cFos, rabbit anti-PKC delta, rabbit anti-phospho-tyrosine 311 of PKC delta or rabbit anti-β-actin antibodies.

[2] = tested on: U937 cells; assay: Attachment of U937 cells; conditions: for attachment of U937 cells: compound alone, 72 hours
Description: U937 cells (Sundstrom, C.; Nilsson, K.: Establishment and characterization of a human histiocytic lymphoma cell line (U-937). Int. J. Cancer 1976, 17: 565-577.), purchased from ATCC (Manassas, Va.) and cultured in RPMI-1640 medium supplemented with 10% FBS (ATCC, Manassas, Va.), were plated in 35 mm dishes at a density of 2×10^5 living cells/ml and treated with different concentrations of the drugs or DMSO. After 72 hours, the number of cells in the supernatant (non-attached cells) and the number of attached cells (after trypsinization) were counted using a Beckman particle counter (Beckman Coulter Inc., Fullerton, Calif.). The number of attached cells is expressed as percent of total cells (FIGS. 8-10).
(§3) U937 cells were treated with PMA (0.1-100 nM), bryostatin 1 (1-1000 nM), the indicated compound (1-1000 nM), 10 nM PMA with different concentrations of bryostatin 1 (1-1000 nM) or 10 nM PMA with different concentrations of indicated compound (1-1000 nM) for 72 hours. The number of attached cells and total cells were counted and the attached cells were graphed as percent of total cells. The bars and error bars represent the average and the standard error of the mean of five independent experiment (FIGS. 8-10).
(§4) U937 cells (Sundstrom and Nilsson, 1976), purchased from ATCC (Manassas, Va.) and cultured in RPMI-1640 medium supplemented with 10% FBS (ATCC, Manassas, Va.), were plated in 35 mm dishes at a density of 1×10^5 living cells/ml and treated with different concentrations of the drugs or DMSO. After 72 hours, the number of cells in the supernatant (non-attached cells) and the number of attached cells (after trypsinization) were counted using a particle counter. The number of attached cells is expressed as percent of total cells.
U937 cells were treated with PMA (0.01-100 nM), bryostatin1 (0.1-1000 nM), analogue 12 (MERLE 28) (0.1-1000 nM), 10 nM PMA with different concentrations of bryostatin 1 (0.1-1000 nM) or 10 nM PMA with different concentrations of analogue 12 (0.1-1000 nM). The number of attached cells and total cells were counted and the attached cells were graphed as percent of total cells. The bars and error bars represent the average and the standard error of the mean of at least three independent experiments.
as §4, with “U-937” for “U937”
as §3, with “U-937” for “U937”, “at least three” for “five”, “experiments.” for “experiment (FIGS. 8-10).”

[3] = tested on: cFos; assay: Induction of cFos in LNCaP cells (western blot); conditions: LNCaP cells treated 2, 5 or 8 hrs
Description: FIGS. 14A-C show the induction of cFos and phosphorylation of PKC at Y311 in LNCaP cells. […] The proteins from the lysates were separated by 10% SDS-PAGE, electroblotted to nitrocellulose membranes and probed with anti-cFos primary and anti-rabbit secondary antibodies, followed by ECL visualization. Data are representative of four independent experiments. […] The cFos signal was normalized to the β-actin signal to correct for loading and the response induced by 100 nM PMA at 2 hrs was taken as 100%. Data represent the means+SEM of four independent experiments. […] Data represent the means+SEM of three independent experiments.
as §2, with “Western blot analysis of treated LNCaP cell lysates was performed as described previously using rabbit anti-cFos, rabbit anti-PKC delta, rabbit anti-phospho-tyrosine 311 of PKC delta or rabbit anti-β-actin antibodies.” left out

[4] = tested on: LNCaP cells; assay: Proliferation of LNCaP cells (Incucyte confluency); conditions: for effect on LNCaP cell growth: compound alone, confluency at 80 hrs
Description: as §1
FIGS. 13A and 13B show the proliferation and morphology of LNCaP cells detected by Incucyte. LNCaP cells were treated with DMSO as control, 300 nM PMA, 1000 nM bryostatin 1 or the bryologue MERLE 21, or with 300 nM PMA in combination with 1000 nM bryostatin 1 or the bryologue MERLE 21. Time-elapsed images were taken by the Incucyte imaging system every hour. […] The arrow indicates the time of treatment. Data are representative of three independent experiments.
The extent of confluency of LNCaP cells (from ATCC, Manassas, Va.) and the morphological changes after treatment were followed in real time using Incucyte (Essen Instruments, Ann Arbor, Mich.). Images of LNCaP cells plated into 24 well plates were taken every 1 hour by the instrument before and after treatment for a total of 4 days. The confluency of the cells was calculated by the instrument's program. The proliferation of LNCaP cells was expressed as the difference in cell confluency before and after treatment.

Row | SMILES | induction of apoptosis in LNCaP cells [1] | attachment of U937 cells [2] | time course of cFos induction [3] | effect on LNCaP cell growth [4] | block of induction of apoptosis by PMA in LNCaP cells ([1]; 300 nM PMA in combination with 1000 nM compound) | block of PMA-induced attachment of U937 cells ([2]; 10 nM PMA with different concentrations of compound) | attachment of U937 cells ([2]; listed as Bryostatin 1) | block of the PMA inhibition of LNCaP cell growth ([4]; 300 nM PMA combined with 1000 nM compound, 80 hrs)
1 | CCCCCCCCCCCCCC(=O)O[C@@H]1[C@@H](C)[C@@]2(O)[C@@H](C=C(CO)C[C@]3(O)C(=O)C(C)=C[C@@H]23)[C@@H]2C(C)(C)[C@]12OC(C)=O [PMA] | induced apoptosis | induces attachment | persisted for 5 hrs, with weak induction still evident at 8 hrs | marked inhibition of cell proliferation | – | – | – | –
2 | CCC/C=C/C=C/C(=O)O[C@H]1/C(=C/C(=O)OC)C[C@H]2C[C@H]([C@@H](C)O)OC(=O)C[C@H](O)C[C@@H]3C[C@H](OC(C)=O)C(C)(C)[C@](O)(C[C@@H]4C/C(=C/C(=O)OC)C[C@H](/C=C/C(C)(C)[C@]1(O)O2)O4)O3 [bryostatin 1] | little effect | much diminished effect | largely lost by 5 hrs | little effect | largely blocked the induction of apoptosis by PMA | blocks the effect of the phorbol ester in a dose-dependent manner | much less effect on either response | blocked the inhibition of LNCaP cell growth by PMA

Reference: patent US9096550B2, “Bryostatin analogues and methods of making and using thereof” (UNIVERSITY OF UTAH RESEARCH FOUNDATION, priority 2008, dated 2015)
